The text below walks through data of a melting point compilation (Tetko et al.; mined from patent text by program, amines drawn as free bases though some values may be those of a salt).

As to `CC(=O)NCN(C(=O)CCl)C(=C(C)C)C(C)C`, the melting point lay within 113 to 114 °C.

`COc1cc(CO)c(-c2ccc(OCCC(C)CCCC(C)C)cc2)cc1CO` (configuration not stated) came in with a melting point of 101 °C.

The compound `COCCOC1c2ccn3c(Br)c(C)nc3c2N(C(C)=O)C(c2ccccc2)C1OC(=O)C(C)(C)C` (configuration not stated) displayed a melting point of 166 to 167 °C.

Compound `CCC(=O)NC(=O)CCCCBr` showed a melting point of 94 to 97 °C.

`COc1cccc(-c2ccc(O)cc2)c1`: the melting point lay within 93 to 95 °C.

On to `Cc1cc(CCC(=O)OC(C)(C)C)cc(-c2nc(=O)c3ccccc3s2)n1`, for which the melting point was in the range of 129 to 130 °C.

Compound `COc1ccc2c(Cc3c(Cl)cncc3Cl)nnc(-n3ccnc3)c2c1` gave a melting point greater than 250 °C.

Consider `O=C1c2cc(Cl)ccc2-n2cncc2[C@@H]2CCCN12`, for which the melting point was in the range of 216 to 217 °C.

The compound `CN(CCNC(=NCCCOc1cccc(CN2CCCCC2)c1)NC#N)CCN(Cc1ccc(F)cc1)c1ccccn1` displayed a melting point of 106 °C.

Regarding `O=C(Nc1ccc(F)cc1)N1CCc2cc(S(=O)(=O)N3CCN(c4cccc(Cl)c4)CC3)ccc21`, the melting point was in the range of 192 to 194 °C.

The compound `O=C(Nc1ccccc1S(=O)(=O)N1CCCCC1)N[C@@H](Cc1ccc(Nc2nccc3ccncc23)cc1)C(=O)O` yielded a melting point of 179 °C.

Compound `CC(OCc1cc2nc(Cl)ccc2n1S(=O)(=O)c1ccccc1)C(=O)O` (configuration not stated) gave a melting point of 150 °C.

In turn, `CCn1c2ccccc2c2cc(C#N)ccc21` showed a melting point of 183 to 185 °C.

As for `CC(C)n1nc(CC(=O)c2cccc(F)c2)ccc1=O`, the melting point lay in the range of 80 to 81 °C.

As for `CCCc1c(OCc2nc(N)c3nccnc3n2)ccc(C(C)=O)c1O`, the melting point is 178 to 180 °C.

With `COc1cccc(CN2CCCCc3cc(CN(O)C(N)=O)ccc32)c1`, the melting point was 38 to 42 °C.

As for `Cc1ccc(S(=O)(=O)Nc2ccccc2)cc1`, the melting point lay in the range of 96 to 98 °C.

On to `O=C(N=c1sc2cc(OC(F)(F)F)ccc2n1CCO)C(F)(F)F`, for which the melting point is 144 °C.

For the compound `Nc1[nH]c(=S)nc2nc[nH]c12`, the melting point was 196 to 198 °C.

`Cc1noc(=O)c2ccc(NC(=O)C(C)(O)CC(C)(C)c3ccccc3)cc12` (configuration not stated) returned a melting point of 173 to 175 °C.

`COc1cc(Oc2cccc(C)n2)c(C=CC(=O)c2ccc(S(N)(=O)=O)cc2)cc1-c1cccs1` showed a melting point of 164 to 165 °C.

In the case of `CC(C)(C(=O)O)n1nc2ccc(NCCCN3CCC(OC(c4ccccc4)c4ccccc4)CC3)nn2c1=O`, the melting point was 181 to 185 °C.

`COc1cc2ncc(C#N)c(Nc3ccc(Cl)cc3C)c2cc1OC`: the melting point was 227 to 229 °C.

As for `COc1ccc(-c2cc3cc(F)c(F)cc3[nH]2)cc1NCc1ccc([N+](=O)[O-])c(O)c1`, the melting point was 170 to 171 °C.

For `Nc1cc(NS(=O)(=O)CCl)c(Cl)cc1F`, the melting point is 104 to 106 °C.

`Fc1ccc2c(C3CCN(CCc4ccccc4)CC3)n[nH]c2c1` registered a melting point of 163 to 165 °C.

As to `C=CCn1c(C)nc2c1CC(C(=O)OCC)C1=C2NC2(CC1=O)Cc1ccccc1C2` (configuration not stated), the melting point lay in the range of 164 to 165 °C.

`O=C1Nc2cccnc2N(C(=O)CN2CCCCC2CN2CCOCC2)c2ccccc21` (configuration not stated) came in with a melting point of 203 to 205 °C.

Compound `Cc1oc(-c2ccccc2)nc1CCOc1cccc2sccc12` had a melting point of 130 to 132 °C.

`COc1ccc(C(C)=Cc2ccncc2)c2c1OC(C)(C)C2`: the melting point lay within 85 to 87 °C.

On to `CCCc1c2c(cc3[nH]c(=O)c(=O)oc13)CCCC2`, for which the melting point lay within 175 to 180 °C.

In the case of `NS(=O)(=O)c1cnc(-c2cn(-c3cc(-c4ccc(Cl)cc4)cc(C(F)(F)F)n3)cn2)s1`, the melting point was 263 °C.

As for `CN(C)CC(=O)Nc1cccc(-c2cc(-c3ccccc3O)nc(NC(=O)c3cccs3)c2C#N)c1`, the melting point is 220 to 221 °C.

`CCC1(O)CCC2(C)C(CCC3C4CCC(C5(C)OCCO5)C4(C)CC(=O)C32)C1` (configuration not stated) showed a melting point of 144 °C.

`COc1nnc(Cl)c2c1CCCC2`: the melting point was 117 to 119 °C.

Turning to `Cc1ccc(-n2cc(-c3cccn4nc(Nc5ccc(C6CCNCC6)cc5)nc34)cn2)cc1`, the melting point was 216 to 218 °C.

`CC(Oc1cc(-n2nc3n(c2=O)CCCC3)c(Cl)cc1Cl)C(=O)O` (configuration not stated): the melting point was 183 to 185 °C.

For `CCOC(=O)c1cc(C(=O)OC)c(=O)oc1C`, the melting point lay in the range of 94 to 96 °C.

Take `CC(C)n1nc(-c2c(NCc3ccccn3)nc(N)nc2-c2ccccc2)ccc1=O`: the melting point was 196 to 198 °C.

Take `COc1ccc(CCC(=O)CC(=O)CCc2ccc(OC)cc2)cc1`: the melting point fell in the range of 73.5 to 76.2 °C.

Consider `CCn1c(=O)c2c(nc(/C=C/c3ccc(-c4ccccc4)cc3)n2C)n(CC)c1=O`, for which the melting point lay in the range of 200 to 201 °C.

For the compound `Nc1ncnc2c1nc(O)n2CCc1ccccc1`, the melting point was 256 to 258 °C.

Compound `CC(C)c1nc2c(nc1C(C)C)-c1c(c(-c3ccc(C(=O)O)cc3)nn1Cc1cccnc1)CC2` displayed a melting point of 204 to 206 °C.

Take `CC(C)(C)c1ccc(CCC=O)cc1NC(=O)CC1c2ccccc2Oc2ccccc21`: the melting point fell in the range of 176 to 177 °C.

`CSCC(=O)[C@H](Cc1ccccc1)NC(=O)[C@H](CC(C)C)NC(=O)OCc1ccccc1` showed a melting point of 81 to 91 °C.

On to `COCCONS(=O)(=O)c1ccccc1`, for which the melting point is 110 to 112 °C.

Regarding `Cc1nc(-n2cc(CNc3ccccc3)nn2)sc1C(=O)NCc1ccccc1`, the melting point lay within 159 to 162 °C.

In the case of `Cc1cc(Cl)c2[nH]nc(C)c2n1`, the melting point lay in the range of 176 to 178 °C.

For the compound `Cc1ccc2c(NCc3ccc(NC(=O)C4CCN(Cc5ccccc5)CC4)cc3)nc(N3CCCC3)nc2c1`, the melting point is 96 °C.

Regarding `COc1ccc(C(=O)Nc2cc(NC(=O)c3cccc(N(C)C)c3)ccc2Cl)cc1OC`, the melting point lay in the range of 98 to 99 °C.

With `COc1cc2ncnc(Nc3cccc(C)c3)c2c(N)c1OC`, the melting point is 181 to 182 °C.

As to `CC(=O)NC1CCN(c2ncc3ncnc(Nc4ccc(F)c(Cl)c4)c3n2)CC1`, the melting point lay within 263 to 265 °C.

Compound `Cn1c2c(ccc1=O)C(NCCc1ccc(C(F)(F)F)cc1)CCC2` (configuration not stated) gave a melting point of 104 to 106 °C.

With `O=C(c1ccccc1)[C@@]1([N+](=O)[O-])[C@@H]2C=C[C@@H](C2)[C@H]1c1ccccc1` (relative stereo), the melting point was 119 to 120 °C.

The compound `N#CNC(=N)CCCSc1nccc(NC(N)=NCC(F)(F)F)n1` had a melting point of 224 °C.

Turning to `Cc1ccsc1C(Cc1ccccc1NCN1C(=O)CCC1=O)N(C)C=O` (configuration not stated), the melting point was in the range of 160 to 164 °C.

The compound `Cn1cnnc1C(O)(c1ccc(Cl)cc1)c1ccc2c(c1)c(-c1cccc(Cl)c1)cc(=O)n2C` (configuration not stated) showed a melting point of 182 °C.

For the compound `CN(C)c1ccc(NC(=O)[C@@H](Cc2ccccc2)NC(=O)CCC(=O)O)cc1`, the melting point is 197 to 198 °C.

As to `CCOC(=O)c1cn2c(n1)CN(C(=O)CCl)c1ccccc1-2`, the melting point fell in the range of 178 to 183 °C.

In the case of `CC(C)N[C@@H](Cc1ccccc1)C(=O)N1CCN(C(c2ccc(F)cc2)c2ccc(F)cc2)CC1`, the melting point lay within 45 to 58 °C.

As for `COc1ccc(C#N)c(F)c1OC`, the melting point was in the range of 64 to 65 °C.

`C(=Cc1cc2cc3ccccc3cc2s1)c1ccccc1` came in with a melting point of 305 to 307 °C.

`CCc1cc(C(=O)c2ccccc2Cl)c(NC)s1`: the melting point lay within 100 to 102 °C.

In turn, `O=C1c2cccc3cc4ccccc4c(c23)C(=O)N1CCCNCCCNCCCN1C(=O)c2cccc3cc4ccccc4c(c23)C1=O` returned a melting point of 140 °C.

On to `Nc1cc(=O)n(Cc2ccc(Cl)c(Cl)c2)[nH]1`, for which the melting point amounted to 159 °C.

`CC(C)OC1C=CC(=O)N1` (configuration not stated) gave a melting point of 79 to 81 °C.

In turn, `CC(C)n1nc(-c2nc(-c3ccccc3)c(N)nc2-c2ccccc2)ccc1=O` displayed a melting point of 225 to 226 °C.

`CC(=O)NC(=O)N1CCSC1c1ccccc1OCCN1CCN(c2cccc(F)c2)CC1` (configuration not stated) had a melting point of 142 to 143 °C.

As to `N#Cc1c(N2CCN(C(=O)c3cccs3)CC2)c2cc(Cl)cnc2n(Cc2ccccc2)c1=O`, the melting point amounted to 221 °C.

In turn, `Cn1cnc2c(=O)[nH]c(N)nc21` showed a melting point greater than 300 °C.

`CCOC(=O)c1c(C)cc2cnc(-c3ccccc3F)nc2c1C`: the melting point was in the range of 98 to 100 °C.

`CC(C)c1c(C=O)c(-c2ccc(F)cc2)nn1-c1ccccc1` gave a melting point of 103 to 105 °C.

In turn, `CN(C)C(=O)c1cc(N)cc(C(F)(F)F)c1` came in with a melting point of 154 °C.

Consider `CC1(C)OC(C=Cc2ccc(F)cc2)=CC1=O`, for which the melting point was 55 to 57 °C.

The compound `Cc1c(C=O)c2ccccc2n1C` yielded a melting point of 129 °C.

`NCCn1c(NC2CCN(Cc3ccccc3)CC2)nc2cccnc21` gave a melting point of 102 °C.

For `CCOC(=O)CC[C@H](NC(=O)OCc1ccccc1)C(=O)O`, the melting point was 82 to 84 °C.

On to `CCOC(=O)c1ncn2c1c(=O)n(CC)c1ncccc12`, for which the melting point is 216 to 217 °C.

Regarding `Cc1cc(C)c(S(=O)(=O)Nc2cccnc2Nc2ccccc2)c(C)c1`, the melting point was 140 to 142 °C.

Regarding `NS(=O)(=O)c1ccc(-c2cc(-c3nc(-c4ccc(C(F)(F)F)cc4F)cc(C(F)(F)F)n3)ccn2)s1`, the melting point is 228 °C.

Compound `Cc1ccc2[nH]cc(C3=C(c4c[nH]c5ccc(C)cc45)C(=O)N(C)C3=O)c2c1` yielded a melting point of 270 to 275 °C.

For the compound `O=c1oc(-c2ccccc2)cc(O)c1SCc1ccc(OCc2ccccc2)cc1`, the melting point lay in the range of 185 to 186 °C.

Take `Nc1nc2c(ncn2COCC=O)c(=O)[nH]1`: the melting point was determined as 350 °C.

Consider `O=S(c1ccncc1)C1CCNCC1` (configuration not stated), for which the melting point is 73 to 76 °C.

`CC(C)CC(NC(=O)OCc1ccccc1)C(=O)NC(Cc1ccc2ccccc2c1)C(=O)CSCc1ccco1` (configuration not stated) registered a melting point of 103 to 104 °C.

Compound `ClC(Cl)=CCOc1cc(Cl)c(OCc2ccncc2)c(Cl)c1` showed a melting point of 74 °C.

Regarding `C[C@H](CO)NN1c2[nH]c(=O)cnc2C=NC1SCc1cccc(C(F)(F)F)c1F` (some centres not stated), the melting point was in the range of 217 to 219 °C.

The melting point is the temperature, or range, at which the solid turns liquid.
